Laboratory results as given in patent US20240209053A1 (Protagonist Therapeutics, Inc., priority 2021, published 2024).
pIC50: −log10 of the molar value. Numbered stars: 1 amine (or outer) side, 2 acyl side, 3 side chain; on linkers, the order of the positions; unused ones are H or OH. Bridge positions count the residues as written; N and C are the ends. Square brackets hold non-standard residues; d marks the D form. Side chains are listed from the residue outwards. Peptide text beside a SMILES is read from it. * marks the point of attachment. Dip = N[C@H](C(=O)O)C(c1ccccc1)c1ccccc1; Hag = O=C([C@H](CCC=[*:3])N[*:1])[*:2]; Palmitoyl = CCCCCCCCCCCCCCCC(=O)*; tBuAla = CC(C)(C)C[C@H](N)C(=O)O; β3hF = N[C@H](CC(=O)O)Cc1ccccc1; Isovaleryl = CC(C)CC(=O)*; Ahx = NCCCCCC(=O)O

How the values were obtained:
[1] = biological target: human ferroportin (SLC40A1) fused in frame with GFP, stably expressed on HEK293 cells (human) (UniProt Q9NP59); experiment: cell-based or functional assay
[2] = biological target: T1, human ferroportin (SLC40A1) (Homo sapiens, UniProt Q9NP59); experiment: FPN activity assay: internalization/degradation of ferroportin-GFP in stably transfected HEK293 cells (decrease in GFP fluorescence); format: cell-based; settings: compound incubated at least 18 hours
T1 sequence (Q9NP59 1-571): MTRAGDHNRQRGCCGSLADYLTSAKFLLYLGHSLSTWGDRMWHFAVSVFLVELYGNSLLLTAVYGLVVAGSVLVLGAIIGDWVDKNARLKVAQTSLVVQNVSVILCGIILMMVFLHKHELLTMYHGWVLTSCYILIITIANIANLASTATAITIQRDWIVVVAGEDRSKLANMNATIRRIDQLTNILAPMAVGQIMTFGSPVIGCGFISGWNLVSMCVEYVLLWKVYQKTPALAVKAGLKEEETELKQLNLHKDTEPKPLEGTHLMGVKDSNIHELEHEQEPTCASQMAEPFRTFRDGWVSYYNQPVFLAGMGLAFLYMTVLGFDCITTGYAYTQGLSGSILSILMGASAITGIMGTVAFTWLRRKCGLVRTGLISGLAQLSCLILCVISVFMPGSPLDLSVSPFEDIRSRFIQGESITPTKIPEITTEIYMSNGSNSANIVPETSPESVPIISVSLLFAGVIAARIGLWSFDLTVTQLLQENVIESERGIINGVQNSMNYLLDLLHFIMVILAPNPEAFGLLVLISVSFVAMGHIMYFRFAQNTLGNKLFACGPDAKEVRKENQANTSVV
Method in brief: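 HEK293 cells stably expressing human ferroportin C-terminally fused to GFP were exposed to peptides for at least 18 h, at most 24 h. Internalization/degradation read as loss of GFP fluorescence; EC50 derived. Retro-inverse mini-hepcidin peptides used as control standards.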

ferroportin = biological target: T2, ferroportin (Homo sapiens, UniProt Q9NP59); experiment: T47D cell-based ferroportin internalization assay in presence of 0.5% mouse serum albumin (MSA); settings: T47D cells
T2 sequence (Q9NP59 1-571): T1 sequence (Q9NP59 1-571)
Method in brief: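 T47D cells exposed 1 hr to peptide series (10 points from ~5 μM) premixed 30 min at room temperature with 0.5% mouse serum albumin, then 200 nM AF647-labelled ferroportin-binding peptide for 2 hr. Flow cytometry MFI of live singlets; IC50 by 4-parameter fit.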

| Potency EC50 (nM) [1] [nM] | Potency EC50 [1] [nM] | pIC50 [2] | pIC50 (ferroportin) | Molecule |
| --- | --- | --- | --- | --- |
| > 10000 | – | – | – | RI-Mini Hepcidin (peptide) |
| – | 34 | – | – | Hepcidin (ligand) |
| – | 712 | – | – | Mini-Hepcidin 1-9 (peptide) |
| – | – | 8.00 to 9.00 | 8.00 to 9.00 | CCCCCCCCCCCCCCCC(=O)NCCCCCC(=O)NCCCC[C@@H]1NC(=O)[C@H](C)NC(=O)[C@@H]2CCCN2C(=O)[C@H](C(c2ccccc2)c2ccccc2)NC(=O)[C@H](Cc2c[nH]cn2)NC(=O)[C@H]([C@@H](C)O)NC(=O)[C@@H](NC(=O)CC(C)C)CCCC=CCCC[C@@H](C(=O)N[C@H](CC(=O)N[C@H](CCCCN)C(N)=O)Cc2ccccc2)NC1=O [Compd 34] |
| – | – | 7.00 to 8.00 | 7.00 to 8.00 | CCCCCCCCCCCCCCCC(=O)NCCCCCC(=O)NCCCC[C@H](NC(=O)C[C@H](Cc1ccccc1)NC(=O)[C@@H]1CC=CCC[C@H](NC(=O)CC(C)C)C(=O)N[C@@H]([C@@H](C)O)C(=O)N[C@@H](Cc2c[nH]cn2)C(=O)N[C@@H](C(c2ccccc2)c2ccccc2)C(=O)N2CCC[C@H]2C(=O)N[C@@H](C)C(=O)N[C@@H]([C@@H](C)CC)C(=O)N1)C(=O)N[C@H](CCCCN)C(N)=O [Compd 26] |
| – | – | 7.00 to 8.00 | 7.00 to 8.00 | CCCCCCCCCCCCCCCC(=O)NCCCCCC(=O)NCCCC[C@H](NC(=O)[C@H](CC(C)(C)C)NC(=O)[C@@H]1CCC=CCC[C@H](NC(=O)CC(C)C)C(=O)N[C@@H]([C@@H](C)O)C(=O)N[C@@H](Cc2c[nH]cn2)C(=O)N[C@@H](C(c2ccccc2)c2ccccc2)C(=O)N2CCC[C@H]2C(=O)N[C@@H](C)C(=O)N[C@@H]([C@@H](C)CC)C(=O)N1)C(=O)N[C@H](CCCCN)C(N)=O [Compd 64] (Isovaleryl-[Hag]TH[Dip]PAI[Hag][tBuAla]K([Ahx-Palmitoyl])[dK]-NH2; staple 1-8) |
| – | – | 7.00 to 8.00 | 8.00 to 9.00 | CCCCCCCCCCCCCCCC(=O)NCCCCCC(=O)NCCCC[C@@H]1NC(=O)[C@@H]2CCCN2C(=O)[C@H](C(c2ccccc2)c2ccccc2)NC(=O)[C@H](Cc2c[nH]cn2)NC(=O)[C@H]([C@@H](C)O)NC(=O)[C@@H](NC(=O)CC(C)C)CCC=CCC[C@@H](C(=O)N[C@H](CC(=O)N[C@H](CCCCN)C(N)=O)Cc2ccccc2)NC(=O)[C@H]([C@@H](C)CC)NC1=O [Compd 36] |
| – | – | 7.00 to 8.00 | 7.00 to 8.00 | CCCCCCCCCCCCCCCC(=O)NCCCCCC(=O)NCCCC[C@H](NC(=O)C[C@H](Cc1ccccc1)NC(=O)[C@@H]1CCC=CCC[C@H](NC(=O)CC(C)C)C(=O)N[C@@H]([C@@H](C)O)C(=O)N[C@@H](Cc2c[nH]cn2)C(=O)N[C@@H](C(c2ccccc2)c2ccccc2)C(=O)N2CCC[C@H]2C(=O)N[C@@H](C)C(=O)N[C@@H](C)C(=O)N1)C(=O)N[C@H](CCCCN)C(N)=O [Compd 45] (Isovaleryl-[Hag]TH[Dip]PAA[Hag][β3hF]K([Ahx-Palmitoyl])[dK]-NH2; staple 1-8) |
| – | – | 7.00 to 8.00 | 6.30 to 7.00 | CCCCCCCCCCCCCCCC(=O)NCCCCCC(=O)NCCCC[C@H](NC(=O)C[C@H](Cc1ccccc1)NC(=O)[C@H]1CCC=CCC[C@@H](NC(=O)CC(C)C)C(=O)N[C@@H]([C@@H](C)O)C(=O)N[C@@H](Cc2c[nH]cn2)C(=O)N[C@@H](C(c2ccccc2)c2ccccc2)C(=O)N2CCC[C@H]2C(=O)N[C@@H](C)C(=O)N[C@@H]([C@@H](C)CC)C(=O)N1)C(=O)N[C@H](CCCCN)C(N)=O [Compd 72] |
| – | – | 8.00 to 9.00 | 7.00 to 8.00 | CCCCCCCCCCCCCCCC(=O)NCCCCCC(=O)NCCCC[C@H](NC(=O)C[C@H](Cc1ccccc1)NC(=O)[C@@H]1CCCC=CCC[C@@H](NC(=O)CC(C)C)C(=O)N[C@@H]([C@@H](C)O)C(=O)N[C@@H](Cc2c[nH]cn2)C(=O)N[C@@H](C(c2ccccc2)c2ccccc2)C(=O)N2CCC[C@H]2C(=O)N[C@@H](C)C(=O)N[C@@H]([C@@H](C)CC)C(=O)N1)C(=O)N[C@H](CCCCN)C(N)=O [Compd 67] |
| – | – | 7.00 to 8.00 | 8.00 to 9.00 | CCCCCCCCCCCCCCCC(=O)NCCCCCC(=O)NCCCC[C@H](NC(=O)C[C@H](Cc1ccccc1)NC(=O)[C@@H]1CCC=CCC[C@H](NC(=O)[C@@H]2CCCN2C(=O)[C@@H](NC(=O)[C@H](Cc2c[nH]cn2)NC(=O)[C@@H](NC(=O)[C@H](CCC(=O)O)NC(=O)CC(C)C)[C@@H](C)O)C(c2ccccc2)c2ccccc2)C(=O)N[C@@H]([C@@H](C)CC)C(=O)N1)C(=O)N[C@H](CCCCN)C(N)=O [Compd 6] (Isovaleryl-ETH[Dip]P[Hag]I[Hag][β3hF]K([Ahx-Palmitoyl])[dK]-NH2; staple 6-8) |
| – | – | 7.00 to 8.00 | 7.00 to 8.00 | CCCCCCCCCCCCCCCC(=O)NCCCCCC(=O)NCCCC[C@H](NC(=O)C[C@H](Cc1ccccc1)NC(=O)[C@H]1CCCC=CCC[C@H](NC(=O)CC(C)C)C(=O)N[C@@H]([C@@H](C)O)C(=O)N[C@@H](Cc2c[nH]cn2)C(=O)N[C@@H](C(c2ccccc2)c2ccccc2)C(=O)N2CCC[C@H]2C(=O)N[C@@H](C)C(=O)N[C@@H]([C@@H](C)CC)C(=O)N1)C(=O)N[C@H](CCCCN)C(N)=O [Compd 75] |
| – | – | 7.00 to 8.00 | 7.00 to 8.00 | CCCCCCCCCCCCCCCC(=O)NCCCCCC(=O)NCCCC[C@H](NC(=O)C[C@H](Cc1ccccc1)NC(=O)[C@@H]1CCC=CCC[C@H](NC(=O)CC(C)C)C(=O)N[C@@H]([C@@H](C)O)C(=O)N[C@@H](Cc2c[nH]cn2)C(=O)N[C@@H](C(c2ccccc2)c2ccccc2)C(=O)N2CCC[C@H]2C(=O)N(C)[C@@H](C)C(=O)N[C@@H]([C@@H](C)CC)C(=O)N1)C(=O)N[C@H](CCCCN)C(N)=O [Compd 52] |
| – | – | 6.30 to 7.00 | 6.30 to 7.00 | CCCCCCCCCCCCCCCC(=O)NCCCCCC(=O)NCCCC[C@H](NC(=O)C[C@H](Cc1ccccc1)NC(=O)[C@@H]1CCC=CCC[C@H](NC(=O)CC(C)C)C(=O)N[C@@H](C)C(=O)N[C@@H](Cc2c[nH]cn2)C(=O)N[C@@H](C(c2ccccc2)c2ccccc2)C(=O)N2CCC[C@H]2C(=O)N[C@@H](C)C(=O)N[C@@H]([C@@H](C)CC)C(=O)N1)C(=O)N[C@H](CCCCN)C(N)=O [Compd 41] (Isovaleryl-[Hag]AH[Dip]PAI[Hag][β3hF]K([Ahx-Palmitoyl])[dK]-NH2; staple 1-8) |
| – | – | 7.00 to 8.00 | 7.00 to 8.00 | CCCCCCCCCCCCCCCC(=O)NCCCCCC(=O)NCCCC[C@H](NC(=O)C[C@H](Cc1ccccc1)NC(=O)[C@@H]1CCCC=CCC[C@H](NC(=O)CC(C)C)C(=O)N[C@@H]([C@@H](C)O)C(=O)N[C@@H](Cc2c[nH]cn2)C(=O)N[C@@H](C(c2ccccc2)c2ccccc2)C(=O)N2CCC[C@H]2C(=O)N[C@@H](C)C(=O)N[C@@H]([C@@H](C)CC)C(=O)N1)C(=O)N[C@H](CCCCN)C(N)=O [Compd 31] |
| – | – | 7.00 to 8.00 | 6.30 to 7.00 | CCCCCCCCCCCCCCCC(=O)NCCCCCC(=O)NCCCC[C@H](NC(=O)[C@H](Cc1ccccc1)N(C)C(=O)[C@@H]1CCC=CCC[C@H](NC(=O)CC(C)C)C(=O)N[C@@H]([C@@H](C)O)C(=O)N[C@@H](Cc2c[nH]cn2)C(=O)N[C@@H](C(c2ccccc2)c2ccccc2)C(=O)N2CCC[C@H]2C(=O)N[C@@H](C)C(=O)N[C@@H]([C@@H](C)CC)C(=O)N1)C(=O)N[C@H](CCCCN)C(N)=O [Compd 54] |
| – | – | 8.00 to 9.00 | 7.00 to 8.00 | CCCCCCCCCCCCCCCC(=O)NCCCCCC(=O)NCCCC[C@H](NC(=O)C[C@H](Cc1ccccc1)NC(=O)[C@@H]1CCC=CCC[C@H](NC(=O)CC(C)C)C(=O)N[C@@H]([C@@H](C)O)C(=O)N[C@@H](Cc2c[nH]cn2)C(=O)N[C@@H](C(c2ccccc2)c2ccccc2)C(=O)N2CCC[C@H]2C(=O)N[C@@H](C)C(=O)N[C@@H]([C@@H](C)CC)C(=O)N1)C(=O)N[C@H](CCCCN)C(N)=O [Peptide ID #16, Isovaleric Acid-[Ala(2)]-T-H-[Dpa]-P-A-I-[Ala(2)]-[bhPhe]-[Lys(Ahx_Palm)]-[(D)Lys]-NH2] |
| – | – | 7.00 to 8.00 | 7.00 to 8.00 | CCCCCCCCCCCCCCCC(=O)NCCCCCC(=O)NCCCC[C@H](NC(=O)C[C@H](Cc1ccccc1)NC(=O)[C@@H]1CCC=CC[C@H](NC(=O)CC(C)C)C(=O)N[C@@H]([C@@H](C)O)C(=O)N[C@@H](Cc2c[nH]cn2)C(=O)N[C@@H](C(c2ccccc2)c2ccccc2)C(=O)N2CCC[C@H]2C(=O)N[C@@H](C)C(=O)N[C@@H]([C@@H](C)CC)C(=O)N1)C(=O)N[C@H](CCCCN)C(N)=O [Compd 27] |
| – | – | 8.00 to 9.00 | 8.00 to 9.00 | CCCCCCCCCCCCCCCC(=O)NCCCCCC(=O)NCCCC[C@@H]1NC(=O)[C@@H]2CCCN2C(=O)[C@H](C(c2ccccc2)c2ccccc2)NC(=O)[C@H](Cc2c[nH]cn2)NC(=O)[C@H]([C@@H](C)O)NC(=O)[C@@H](NC(=O)CC(C)C)CCCC=CCCC[C@@H](C(=O)N[C@H](CC(=O)N[C@H](CCCCN)C(N)=O)Cc2ccccc2)NC(=O)[C@H]([C@@H](C)CC)NC1=O [Compd 33] |
